Our source for the IC50 values is patent US20120077802A1 (SUNOVION PHARMACEUTICALS INC., priority 2009, published 2012).

Where two headings read alike, the source gives them in different places. Some results are limits rather than exact numbers.

For the test, the target named is T1, human histamine H3 receptor (Homo sapiens, UniProt Q9Y5N1).
T1 construct: host or cells: cells expressing the human H3 receptor
As to the kind of experiment: H3 GTPγS assay (SPA method), histamine H3 in vitro assay. It is filed as biochemical. Here is the method:
H3 GTPγS assay (SPA method) was performed at EuroScreen (Belgium, ES-392-C) using conventional methods. Briefly, cells expressing the human histamine H3 receptor were homogenized in 15 mM Tris-HCl pH 7.5, 2 mM MgCl2, 0.3 mM EDTA, and 1 mM EGTA. Membranes were washed twice in the above tris buffer, collected by centrifugation (40,000×g, 25 min), and re-suspended in 75 mM Tris-HCl pH 7.5, 12.5 mM MgCl2, 0.3 mM EDTA, 1 mM EGTA, and 250 mM sucrose. Membranes were frozen in liquid nitrogen until use. On the day of the assay, membranes were thawed and diluted in assay buffer (20 mM HEPES pH 7.4, 100 mM NaCl, 10 μg/ml saponin, 1 mM MgCl2) to give 500 μg/ml and mixed (v/v) with GDP in assay buffer for a final GDP concentration of 10 μM and incubated on ice for at least 15 min. PVT-WGA beads (Amersham, RPNQ001) were diluted in assay buffer at 50 mg/mL and mixed with GTPγ[^35S] (Amersham, SJ1308) diluted in assay buffer to give ˜25,000 dpm/10 μL, and mixed vol/vol just before the start of the reaction. The reaction was started by adding 50 μL of test compound, 20 μL of the membranes:GDP mix, 10 μL of buffer, and 20 μL of the GTPγ[^35S]:beads mix in a 96 well plate Optiplate™ (PerkinElmer, 6005299) covered with topseal (TopCount™, PerkinElmer), mixed with an orbital shaker for 2 min, incubated for 1 hour at room temperature, centrifuged for 10 min at 2000 rpm, incubated for 1 h at room temperature, and counted for 1 min in a TopCount™ reader (PerkinElmer). Dose response curves and IC50 values (concentration to inhibit the reaction by 50%) were calculated by nonlinear regression using XLfit software (IDBS).
For antagonists testing, 10 μL of a reference agonist (R-γ-Me-Histamine) instead of 10 μL buffer was added at a concentration corresponding to the EC80 (30 nM). Control ligands were R-γ-Me-Histamine (Tocris, 0569), Imetit (Sigma, I-135), Thioperamide (Tocris, 0644), and Clobenpropit (Tocris, 0754) diluted in assay buffer.
The compounds provided herein were tested in the histamine H3 in vitro assay. In one embodiment, the respective HCl salts of the compounds provided herein were prepared using standard chemical procedures and tested in the histamine H3 in vitro assay.

The mark [1] stands for this setting: GTPγ[35S] SPA, membranes of cells expressing human H3 receptor, in one embodiment HCl salts tested, read-out: Potency (functional potency as indicated by IC50).

T1 sequence (Q9Y5N1 whole entry): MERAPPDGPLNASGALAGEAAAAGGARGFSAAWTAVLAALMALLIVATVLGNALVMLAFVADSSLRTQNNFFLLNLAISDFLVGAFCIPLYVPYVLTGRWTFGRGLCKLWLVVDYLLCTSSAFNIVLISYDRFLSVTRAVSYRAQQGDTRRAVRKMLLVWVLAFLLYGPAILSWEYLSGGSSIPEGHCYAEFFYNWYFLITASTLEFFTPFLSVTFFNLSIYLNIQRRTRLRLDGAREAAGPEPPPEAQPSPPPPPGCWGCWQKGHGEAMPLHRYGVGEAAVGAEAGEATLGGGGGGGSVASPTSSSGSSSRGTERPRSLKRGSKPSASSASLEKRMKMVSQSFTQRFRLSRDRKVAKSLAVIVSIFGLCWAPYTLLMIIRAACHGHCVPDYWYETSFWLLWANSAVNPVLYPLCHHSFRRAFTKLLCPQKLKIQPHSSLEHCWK

Consider `c1cc2c(cc1CN1CCOCC1)CC1(CCN3CCCC3C1)O2` (stereo not shown) [Compound 92, 5-(Morpholinomethyl)-2′,3′,5′,6′,8′,8a′-hexahydro-1′H,3H-spiro[benzofuran-2,7′-indolizine]], for which, under setting [1], the IC50 (as a rule, the point on the concentration scale where inhibition reaches its midpoint) was at most 0.01 µM. In the case of `c1ccc2c(c1)CC1(CCN(Cc3c[nH]cn3)CC1)O2` [Compound 3, 1′-((1H-Imidazol-4-yl)methyl)-3H-spiro [benzofuran-2,4′-piperidine]], the IC50 (histamine H3 in vitro assay, read-out: IC50 values) is over 1 µM. Regarding `c1cc2ncc(-c3ccc4c(c3)CC3(CCN(C5CCC5)CC3)O4)cc2o1` [Compound 60, 1′-Cyclobutyl-5-(furo[3,2-b]pyridin-6-yl)-3H-spiro[benzofuran-2,4′-piperidine]], the IC50 under setting [1] is at most 0.01 µM.

With `Brc1ccc2c(c1)CC1(CCN(C3CCC3)CC1)O2` [Compound 23, 5-Bromo-1′-cyclobutyl-3H-spiro[benzofuran-2,4′-piperidine]], the IC50 under setting [1] was at most 1 µM. On the same count and under the same terms, the figure for `c1cn2cc(-c3ccc4c(c3)CC3(CCCN(C5CCC5)CC3)O4)ccc2n1` (stereo not shown) [Compound 49, 1-Cyclobutyl-5′-(imidazo[1,2-a]pyridin-6-yl)-3′H-spiro[azepane-4,2′-benzofuran]] is at most 0.1 µM. On the same count and under the same terms, to `c1cn(-c2ccc3c(c2)CC2(CCN(C4CCC4)CC2)O3)cn1` [Compound 31, 1′-Cyclobutyl-5-(1H-imidazol-1-yl)-3H-spiro[benzofuran-2,4′-piperidine]] belongs at most 0.01 µM; to “5-(Morpholinomethyl)-2′,3′,4′,6′,7′,9′,10′,10a′-octahydro-1′H,3H-spiro[benzofuran-2,8′-pyrido[1,2-a]azepine] and 5-(morpholinomethyl)-2′,3′,4′,6′,7′,8′,10′,10a′-octahydro-1′H,3H-spiro[benzofuran-2,9′-pyrido[1,2-a]azepine] [87/87a]”, at most 0.1 µM.

As for `c1cc2c(cc1CN1CCOCC1)CC1(CCN3CCCCC3C1)O2` (stereo not shown) [Compound 79, 5-(Morpholinomethyl)-1′,3′,4′,6′,7′,8′,9′,9a′-octahydro-3H-spiro[benzofuran-2,2′-quinolizine]], the concentration for half-maximal inhibition (IC50) under setting [1] is at most 0.01 µM. On to `Brc1ccc2c(c1)CC1(CCCN(C3CCC3)CC1)O2` (stereo not shown) [Compound 47, 5′-Bromo-1-cyclobutyl-3′H-spiro[azepane-4,2′-benzofuran]], for which, under setting [1], the IC50 was at most 1 µM. Still for that read-out and setting: to `N#Cc1ccc(-c2ccc3c(c2)CC2(CCN4CCCC4C2)O3)cc1` (stereo not shown) [Compound 90, 4-(2′,3′,5′,6′,8′,8a′-Hexahydro-1′H,3H-spiro[benzofuran-2,7′-indolizin]-5-yl)benzonitrile] belongs at most 0.01 µM; to `CN(C)Cc1ccc2c(c1)OC1(CCN(C3CCC3)CC1)C2` [Compound 43, 1-(1′-Cyclobutyl-3H-spiro[benzofuran-2,4′-piperidine]-6-yl)-N,N-dimethylmethanamine], at most 0.1 µM; to `CC(C)N1CCC2(CC1)Cc1cc(-c3ccc(C#N)cc3)ccc1O2` [Compound 22, 4-(1′-Isopropyl-3H-spiro[benzofuran-2,4′-piperidine]-5-yl)benzonitrile], at most 0.01 µM. For the molecule `N#Cc1ccc(NCc2ccc3c(c2)OC2(CCN(C4CCC4)CC2)C3)cc1` [Compound 46, 4-((1′-Cyclobutyl-3H-spiro[benzofuran-2,4′-piperidine]-6-yl)methylamino)benzonitrile], the IC50 under setting [1] is at most 0.1 µM. On the same count and under the same terms, to `c1cn2cc(-c3ccc4c(c3)CC3(CCC5CCCCN5CC3)O4)ccc2n1` (stereo not shown) [Compound 83, 5-(Imidazo[1,2-a]pyridin-6-yl)-2′,3′,4′,6′,7′,9′,10′,10a′-octahydro-1′H,3H-spiro[benzofuran-2,8′-pyrido[1,2-a]azepine]] belongs at most 0.1 µM; to `c1cn2cc(-c3ccc4c(c3)CC3(CCN5CCCCC5C3)O4)ccc2n1` (stereo not shown) [Compound 77, 5-(Imidazo[1,2-a]pyridin-6-yl)-1′,3′,4′,6′,7′,8′,9′,9a′-octahydro-3H-spiro[benzofuran-2,2′-quinolizine]], at most 0.01 µM; to `CC(C1CCC1)N1CCC2(CC1)Cc1cc(-c3ccc(C#N)cc3)ccc1O2` (stereo not shown) [Compound 11, 4-(1′-(1-Cyclobutylethyl)-3H-spiro[benzofuran-2,4′-piperidine]-5-yl)benzonitrile], at most 0.01 µM.

With `Brc1ccc2c(c1)CC1(CCN3CCCC3C1)O2` (stereo not shown) [Compound 89, 5-Bromo-2′,3′,5′,6′,8′,8a′-hexahydro-1′H,3H-spiro[benzofuran-2,7′-indolizine]], the half-inhibitory concentration (IC50) under setting [1] is at most 0.1 µM. In the case of `c1cc2c(cc1CN1CCCC1)OC1(CCN(C3CCC3)CC1)C2` [Compound 45, 1′-Cyclobutyl-6-(pyrrolidin-1-ylmethyl)-3H-spiro[benzofuran-2,4′-piperidine]], the half-maximal inhibitory concentration (IC50) under setting [1] is at most 0.1 µM. Still for that read-out and setting: to `CN1CCN(c2ccc3c(c2)CC2(CCN(C4CCC4)CC2)O3)CC1` [Compound 33, 1′-Cyclobutyl-5-(4-methylpiperazin-1-yl)-3H-spiro[benzofuran-2,4′-piperidine]] belongs at most 0.01 µM; to `N#Cc1ccc(-c2ccc3c(c2)CC2(CCN(C4CCCCC4)CC2)O3)cc1` [Compound 20, 4-(1′-Cyclohexyl-3H-spiro[benzofuran-2,4′-piperidine]-5-yl)benzonitrile], at most 0.1 µM; to `c1cnc(-c2ccc3c(c2)OC2(CCN(C4CCC4)CC2)C3)cn1` [Compound 37, 1′-Cyclobutyl-6-(pyrazin-2-yl)-3H-spiro[benzofuran-2,4′-piperidine]], at most 0.1 µM. With `c1cc2c(cc1-c1cn[nH]c1)CC1(CCN(C3CCC3)CC1)O2` [Compound 27, 1′-Cyclobutyl-5-(1H-pyrazol-4-yl)-3H-spiro[benzofuran-2,4′-piperidine]], under setting [1], the IC50 is at most 0.1 µM. As for `COc1ccnc(-c2ccc3c(c2)OC2(CCN(C4CCC4)CC2)C3)n1` [Compound 36, 1′-Cyclobutyl-6-(4-methoxypyrimidin-2-yl)-3H-spiro[benzofuran-2,4′-piperidine]], under setting [1], the IC50 is at most 0.1 µM. Consider `c1ccc2c(c1)CC1(CCN(C3CCC3)CC1)O2` [Compound 1, 1′-Cyclobutyl-3H-spiro[benzofuran-2,4′-piperidine]], for which the IC50 under setting [1] was at most 0.1 µM. On the same count and under the same terms, the figure for `c1cc2nc(-c3ccc4c(c3)CC3(CCN(C5CCC5)CC3)O4)cnc2[nH]1` [Compound 58, 1′-Cyclobutyl-5-(5H-pyrrolo[2,3-b]pyrazin-2-yl)-3H-spiro[benzofuran-2,4′-piperidine]] is at most 0.01 µM; for `c1ccc2c(c1)ncn2-c1ccc2c(c1)C[C@]1(CCCN(C3CCC3)CC1)O2` (single isomer, unassigned) [Compound 53, 5′-(1H-Benzo[d]imidazol-1-yl)-1-cyclobutyl-3′H-spiro[azepane-4,2′-benzofuran]] it is at most 0.1 µM; for “5-(Imidazo[1,2-a]pyridin-6-yl)-1′,2′,3′,5′,6′,7′,9′,9a′-octahydro-3H-spiro[benzofuran-2,8′-pyrrolo[1,2-a]azepine] and 5-(imidazo[1,2-a]pyridin-6-yl)-1′,2′,3′,5′,6′,8′,9′,9a′-octahydro-3H-spiro[benzofuran-2,7′-pyrrolo[1,2-a]azepine] [96/96a]” it is at most 0.01 µM. Still for that read-out and setting: to “5-Bromo-1′,2′,3′,5′,6′,7′,9′,9a′-octahydro-3H-spiro[benzofuran-2,8′-pyrrolo[1,2-a]azepine] and 5-bromo-1′,2′,3′,5′,6′,8′,9′,9a′-octahydro-3H-spiro[benzofuran-2,7′-pyrrolo[1,2-a]azepine] [94/94a]” belongs at most 1 µM.
